According to ChEMBL document CHEMBL3272011, “Aminobenzoic acid diuretics. 9. 3,4-Disubstituted 5-acylaminobenzoic acids and related compounds” (1977):

Experiments:
[1] = test system: Canis familiaris; test: Diuretic effect in mongrel dog assessed as urinary excretion of Na+ at 0.25 mg/kg, po after 3 hrs (reference value: 0.10 +/- 0.02 mequiv/kg); format: functional, Canis lupus familiaris, Urine
[2] = test system: Canis familiaris; test: Diuretic effect in mongrel dog assessed as urinary excretion of K+ at 0.25 mg/kg, po after 3 hrs (reference value: 0.16 +/- 0.01 mequiv/kg); format: functional, Canis lupus familiaris, Urine
[3] = test system: Canis familiaris; test: Diuretic effect in mongrel dog assessed as urinary excretion of water at 0.25 mg/kg, po after 3 hrs (reference value: 0.93 +/- 0.35 ml/kg); format: functional, Canis lupus familiaris, Urine
[4] = test system: Canis familiaris; test: Diuretic effect in mongrel dog assessed as urinary excretion of Cl- at 0.25 mg/kg, po after 3 hrs (reference value: 0.08 +/- 0.02 mequiv/kg); format: functional, Canis lupus familiaris, Urine
[5] = test system: Canis familiaris; test: Diuretic effect in mongrel dog assessed as urinary excretion of K+ at 1 mg/kg, iv after 3 hrs (reference value: 0.16 +/- 0.01 mequiv/kg); format: functional, Canis lupus familiaris, Urine
[6] = test system: Canis familiaris; test: Diuretic effect in mongrel dog assessed as urinary excretion of Na+ at 1 mg/kg, iv after 3 hrs (reference value: 0.10 +/- 0.02 mequiv/kg); format: functional, Canis lupus familiaris, Urine
[7] = test system: Canis familiaris; test: Diuretic effect in mongrel dog assessed as urinary excretion of water at 1 mg/kg, iv after 3 hrs (reference value: 0.93 +/- 0.35 ml/kg); format: functional, Canis lupus familiaris, Urine
[8] = test system: Canis familiaris; test: Diuretic effect in mongrel dog assessed as urinary excretion of Cl- at 1 mg/kg, po after 3 hrs (reference value: 0.08 +/- 0.02 mequiv/kg)
[9] = test system: Canis familiaris; test: Diuretic effect in mongrel dog assessed as urinary excretion of Cl- at 0.25 mg/kg, iv after 3 hrs (reference value: 0.08 +/- 0.02 mequiv/kg); format: functional, Canis lupus familiaris, Urine
[10] = test system: Canis familiaris; test: Diuretic effect in mongrel dog assessed as urinary excretion of Cl- at 0.1 mg/kg, iv after 3 hrs (reference value: 0.08 +/- 0.02 mequiv/kg); format: functional, Canis lupus familiaris, Urine
[11] = test system: Canis familiaris; test: Diuretic effect in mongrel dog assessed as urinary excretion of Na+ at 0.01 mg/kg, po after 3 hrs (reference value: 0.10 +/- 0.02 mequiv/kg); format: functional, Canis lupus familiaris, Urine
[12] = test system: Canis familiaris; test: Diuretic effect in mongrel dog assessed as urinary excretion of water at 0.25 mg/kg, iv after 3 hrs (reference value: 0.93 +/- 0.35 ml/kg); format: functional, Canis lupus familiaris, Urine
[13] = test system: Canis familiaris; test: Diuretic effect in mongrel dog assessed as urinary excretion of K+ at 0.01 mg/kg, po after 3 hrs (reference value: 0.16 +/- 0.01 mequiv/kg); format: functional, Canis lupus familiaris, Urine
[14] = test system: Canis familiaris; test: Diuretic effect in mongrel dog assessed as urinary excretion of Na+ at 0.25 mg/kg, iv after 3 hrs (reference value: 0.10 +/- 0.02 mequiv/kg); format: functional, Canis lupus familiaris, Urine
[15] = test system: Canis familiaris; test: Diuretic effect in mongrel dog assessed as urinary excretion of K+ at 0.1 mg/kg, iv after 3 hrs (reference value: 0.16 +/- 0.01 mequiv/kg); format: functional, Canis lupus familiaris, Urine
[16] = test system: Canis familiaris; test: Diuretic effect in mongrel dog assessed as urinary excretion of Cl- at 0.01 mg/kg, po after 3 hrs (reference value: 0.08 +/- 0.02 mequiv/kg); format: functional, Canis lupus familiaris, Urine
[17] = test system: Canis familiaris; test: Diuretic effect in mongrel dog assessed as urinary excretion of Na+ at 0.1 mg/kg, iv after 3 hrs (reference value: 0.10 +/- 0.02 mequiv/kg); format: functional, Canis lupus familiaris, Urine
[18] = test system: Canis familiaris; test: Diuretic effect in mongrel dog assessed as urinary excretion of water at 0.01 mg/kg, iv after 3 hrs (reference value: 0.93 +/- 0.35 ml/kg)
[19] = test system: Canis familiaris; test: Diuretic effect in mongrel dog assessed as urinary excretion of water at 0.1 mg/kg, iv after 3 hrs (reference value: 0.93 +/- 0.35 ml/kg); format: functional, Canis lupus familiaris, Urine
[20] = test system: Canis familiaris; test: Diuretic effect in mongrel dog assessed as urinary excretion of K+ at 0.25 mg/kg, iv after 3 hrs (reference value: 0.16 +/- 0.01 mequiv/kg); format: functional, Canis lupus familiaris, Urine
[21] = test system: Canis familiaris; test: Diuretic effect in mongrel dog assessed as urinary excretion of Na+ at 5 mg/kg, po after 3 hrs (reference value: 0.10 +/- 0.02 mequiv/kg); format: functional, Canis lupus familiaris, Urine
[22] = test system: Canis familiaris; test: Diuretic effect in mongrel dog assessed as urinary excretion of Cl- at 1 mg/kg, po after 3 hrs (reference value: 0.08 +/- 0.02 mequiv/kg); format: functional, Canis lupus familiaris, Urine
[23] = test system: Canis familiaris; test: Diuretic effect in mongrel dog assessed as urinary excretion of Cl- at 1 mg/kg, iv after 3 hrs (reference value: 0.08 +/- 0.02 mequiv/kg); format: functional, Canis lupus familiaris, Urine
[24] = test system: Canis familiaris; test: Diuretic effect in mongrel dog assessed as urinary excretion of K+ at 5 mg/kg, iv after 3 hrs (reference value: 0.16 +/- 0.01 mequiv/kg); format: functional, Canis lupus familiaris, Urine
[25] = test system: Canis familiaris; test: Diuretic effect in mongrel dog assessed as urinary excretion of K+ at 1 mg/kg, po after 3 hrs (reference value: 0.16 +/- 0.01 mequiv/kg); format: functional, Canis lupus familiaris, Urine
[26] = test system: Canis familiaris; test: Diuretic effect in mongrel dog assessed as urinary excretion of water at 1 mg/kg, po after 6 hrs (reference value: 1.73 +/- 0.46 ml/kg); format: functional, Canis lupus familiaris, Urine
[27] = test system: Canis familiaris; test: Diuretic effect in mongrel dog assessed as urinary excretion of Cl- at 5 mg/kg, iv after 3 hrs (reference value: 0.08 +/- 0.02 mequiv/kg); format: functional, Canis lupus familiaris, Urine
[28] = test system: Canis familiaris; test: Diuretic effect in mongrel dog assessed as urinary excretion of Na+ at 0.25 mg/kg, po after 6 hrs (reference value: 0.27 +/- 0.09 mequiv/kg); format: functional, Canis lupus familiaris, Urine
[29] = test system: Canis familiaris; test: Diuretic effect in mongrel dog assessed as urinary excretion of Na+ at 1 mg/kg, po after 6 hrs (reference value: 0.27 +/- 0.09 mequiv/kg); format: functional, Canis lupus familiaris, Urine
[30] = test system: Canis familiaris; test: Diuretic effect in mongrel dog assessed as urinary excretion of water at 5 mg/kg, po after 3 hrs (reference value: 0.93 +/- 0.35 ml/kg); format: functional, Canis lupus familiaris, Urine
[31] = test system: Canis familiaris; test: Diuretic effect in mongrel dog assessed as urinary excretion of K+ at 5 mg/kg, po after 3 hrs (reference value: 0.16 +/- 0.01 mequiv/kg); format: functional, Canis lupus familiaris, Urine
[32] = test system: Canis familiaris; test: Diuretic effect in mongrel dog assessed as urinary excretion of water at 1 mg/kg, po after 3 hrs (reference value: 0.93 +/- 0.35 ml/kg); format: functional, Canis lupus familiaris, Urine
[33] = test system: Canis familiaris; test: Diuretic effect in mongrel dog assessed as urinary excretion of K+ at 1 mg/kg, po after 6 hrs (reference value: 0.24 +/- 0.03 mequiv/kg); format: functional, Canis lupus familiaris, Urine
[34] = test system: Canis familiaris; test: Diuretic effect in mongrel dog assessed as urinary excretion of Na+ at 1 mg/kg, po after 3 hrs (reference value: 0.10 +/- 0.02 mequiv/kg); format: functional, Canis lupus familiaris, Urine
[35] = test system: Canis familiaris; test: Diuretic effect in mongrel dog assessed as urinary excretion of Cl- at 0.25 mg/kg, iv after 3 hrs (reference value: 0.08 +/- 0.02 mequiv/kg)
[36] = test system: Canis familiaris; test: Diuretic effect in mongrel dog assessed as urinary excretion of Cl- at 1 mg/kg, po after 6 hrs (reference value: 0.17 +/- 0.09 mequiv/kg); format: functional, Canis lupus familiaris, Urine
[37] = test system: Canis familiaris; test: Diuretic effect in mongrel dog assessed as urinary excretion of water at 5 mg/kg, iv after 3 hrs (reference value: 0.93 +/- 0.35 ml/kg); format: functional, Canis lupus familiaris, Urine
[38] = test system: Canis familiaris; test: Diuretic effect in mongrel dog assessed as urinary excretion of Na+ at 5 mg/kg, iv after 3 hrs (reference value: 0.10 +/- 0.02 mequiv/kg); format: functional, Canis lupus familiaris, Urine
[39] = test system: Canis familiaris; test: Diuretic effect in mongrel dog assessed as urinary excretion of water at 0.25 mg/kg, po after 6 hrs (reference value: 1.73 +/- 0.46 ml/kg); format: functional, Canis lupus familiaris, Urine
[40] = test system: Canis familiaris; test: Diuretic effect in mongrel dog assessed as urinary excretion of Cl- at 5 mg/kg, po after 3 hrs (reference value: 0.08 +/- 0.02 mequiv/kg); format: functional, Canis lupus familiaris, Urine
[41] = test system: Canis familiaris; test: Diuretic effect in mongrel dog assessed as urinary excretion of K+ at 0.25 mg/kg, po after 6 hrs (reference value: 0.24 +/- 0.03 mequiv/kg); format: functional, Canis lupus familiaris, Urine

CCCCSc1cc(C(=O)O)cc(NC=O)c1C(=O)c1ccccc1
Activity [1]: 0.5 milliequivalent/kg | Activity [2]: 0.28 milliequivalent/kg | Activity [3]: 17 mL/kg | Activity [4]: 0.6 milliequivalent/kg | Activity [5]: 0.65 milliequivalent/kg | Activity [6]: 2.3 milliequivalent/kg | Activity [7]: 21 mL/kg | Activity [8]: 2.1 milliequivalent/kg

CCCCNc1cc(C(=O)O)cc(S(N)(=O)=O)c1Oc1ccccc1 [BUMETANIDE]
Activity [9]: 5.7 milliequivalent/kg | Activity [10]: 3.5 milliequivalent/kg | Activity [11]: 0.92 milliequivalent/kg | Activity [12]: 39 mL/kg | Activity [13]: 0.27 milliequivalent/kg | Activity [14]: 4 milliequivalent/kg | Activity [15]: 0.44 milliequivalent/kg | Activity [16]: 1.4 milliequivalent/kg | Activity [17]: 2.4 milliequivalent/kg | Activity [18]: 10 mL/kg | Activity [19]: 26 mL/kg | Activity [20]: 0.84 milliequivalent/kg

O=CNc1cc(C(=O)O)cc(OCc2ccccc2)c1C(=O)c1ccccc1
Activity [21]: 3.1 milliequivalent/kg | Activity [10]: 1.3 milliequivalent/kg | Activity [22]: 3.3 milliequivalent/kg | Activity [23]: 3.1 milliequivalent/kg | Activity [24]: 0.63 milliequivalent/kg | Activity [25]: 0.51 milliequivalent/kg | Activity [26]: 22 mL/kg | Activity [27]: 4.5 milliequivalent/kg | Activity [28]: 2.1 milliequivalent/kg | Activity [29]: 2.5 milliequivalent/kg | Activity [30]: 33 mL/kg | Activity [31]: 1.09 milliequivalent/kg | Activity [32]: 21 mL/kg | Activity [15]: 0.24 milliequivalent/kg | Activity [33]: 0.49 milliequivalent/kg | Activity [34]: 2.5 milliequivalent/kg | Activity [35]: 2.6 milliequivalent/kg | Activity [5]: 0.49 milliequivalent/kg | Activity [6]: 1.1 milliequivalent/kg | Activity [7]: 9 mL/kg | Activity [36]: 3.3 milliequivalent/kg | Activity [37]: 21 mL/kg | Activity [38]: 2.2 milliequivalent/kg | Activity [39]: 18 mL/kg | Activity [17]: 1 milliequivalent/kg | Activity [40]: 4.5 milliequivalent/kg | Activity [19]: 9 mL/kg | Activity [41]: 0.41 milliequivalent/kg
